The structures appear in SMILES notation.

Test [1] has as its target human recombinant TDO2 enzyme (Homo sapiens (Human), UniProt P48775). Kind of test: Assay for TDO2 enzymatic activity determination. Format: biochemical. The note with it: human recombinant TDO2, L-Trp 1 mM, kynurenine absorbance at 480 nm. On the procedure: The compounds of formula I, its subformulae, and enantiomers, salts and solvates thereof, are useful to inhibit the enzymatic activity of human TDO2. To measure the TDO2 activity, the procedure described in Dolusic et al. J. Med. Chem.; 2011, 54, […] was adapted: the reaction mixture contained (final concentrations) potassium phosphate buffer (50 mM, pH 7.5), ascorbic acid ([…]), methylene blue (0.125 μM), catalase (40 units/mL, from bovine liver, Sigma), and human recombinant TDO2 enzyme (prepared as described in Dolusic et al. J. Med. Chem.; 2011, 54, 5320-5334; 0.9 μg) without or with the compounds of the present invention at the indicated concentrations (total volume 112.5 μL). The reaction was initiated by the addition of 37.5 μL of L-Trp (final concentration 1 mM) at room temperature. The reaction was conducted at room temperature during one hour and stopped by the addition of 30 μL of 30% (w/v) trichloroacetic acid. To convert N-formylkynurenine into kynurenine, the reaction mixture was incubated at 65° C. for 30 min. […] Kynurenine concentrations were determined by measuring the absorbance at 480 nm. A standard curve was made with pure kynurenine. The TDO activity was measured as described above using ten serial concentrations of the compounds of the present invention. Data were fitted using the Prism™ software (GraphPad Software, Inc.) using standard parameters.

For test [2], the target named is hTDO2 in human glioblastoma A172 cells (Homo sapiens (Human), UniProt P48775). Nature of the test: Cellular assay for TDO2 activity determination in A172 cells. Format: cell-based. Particulars: overnight incubation, kynurenine absorbance at 480 nm. A digest of the protocol:
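Glioblastoma A172 cells with endogenous hTDO2, 1.25×10^4 cells/well, incubated overnight at 37° C. with ten serial compound concentrations in IMDM with 2% FBS. Supernatant kynurenine, after TCA precipitation and 4-(dimethylamino)-benzaldehyde reaction, read at 480 nm against kynurenine standard curve; data curve-fitted.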

Sequence of human recombinant TDO2 enzyme (P48775 whole entry): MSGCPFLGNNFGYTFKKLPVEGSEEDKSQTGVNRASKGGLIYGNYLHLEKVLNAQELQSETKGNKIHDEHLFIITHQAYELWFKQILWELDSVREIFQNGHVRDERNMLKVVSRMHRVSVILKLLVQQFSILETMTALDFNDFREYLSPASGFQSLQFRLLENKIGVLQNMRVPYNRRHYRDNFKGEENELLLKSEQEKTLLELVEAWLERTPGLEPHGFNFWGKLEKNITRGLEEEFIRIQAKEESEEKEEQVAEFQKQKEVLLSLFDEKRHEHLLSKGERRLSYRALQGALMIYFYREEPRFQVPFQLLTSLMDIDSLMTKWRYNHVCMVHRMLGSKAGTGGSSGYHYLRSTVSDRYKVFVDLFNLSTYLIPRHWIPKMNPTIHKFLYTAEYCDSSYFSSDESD
Sequence of hTDO2 in human glioblastoma A172 cells (P48775 whole entry): as above

The term IC50 denotes the concentration that gives 50% inhibition. For `CS(=O)(=O)c1ccc(-c2c[nH]c3cc(F)ccc23)cc1` [Example 1, 6-Fluoro-3-(4-methanesulfonyl-phenyl)-1H-indole], the IC50 turned out to be 1500 nM in test [1] and 84 nM in test [2]. In the case of `NCCNC(=O)c1ccc(-c2c[nH]c3cc(F)ccc23)cc1` [Example 2, N-(2-aminoethyl)-4-(6-fluoro-1H-indol-3-yl)benzamide], the values for the 50% inhibitory concentration (IC50) in test [1] and in test [2] were 1100 nM and 150 nM, respectively. For `O=C(c1ccc(-c2c[nH]c3cc(F)ccc23)cc1)N1CCNCC1` [Example 3, (4-(6-fluoro-1H-indol-3-yl)phenyl)(piperazin-1-yl)methanone] the same measures were 2100 nM and 110 nM. For `O=S(=O)(c1ccc(-c2c[nH]c3cc(F)ccc23)cc1)N1CCNCC1` [Example 4, 6-fluoro-3-(4-(piperazin-1-ylsulfonyl)phenyl)-1H-indole] the same measures were 2100 nM and 130 nM.

`O=S(=O)(c1ccc(-c2c[nH]c3cc(F)ccc23)cc1)N1CCOCC1` [Example 5, 4-((4-(6-fluoro-1H-indol-3-yl)phenyl)sulfonyl)morpholine]: the IC50 in test [1] is 4700 nM; in test [2] it was 250 nM. For `NS(=O)(=O)c1ccc(-c2c[nH]c3cc(F)ccc23)cc1` [Example 6, 4-(6-fluoro-1H-indol-3-yl)benzenesulfonamide] the same measures were 1000 nM and 82 nM. For `O=S(=O)(c1cccc(-c2c[nH]c3cc(F)ccc23)c1)N1CCNCC1` [Example 7, 6-fluoro-3-(3-(piperazin-1-ylsulfonyl)phenyl)-1H-indole] the same measures were 4400 nM and 340 nM. For `NCCNS(=O)(=O)c1ccc(-c2c[nH]c3cc(F)ccc23)cc1` [Example 8, N-(2-aminoethyl)-4-(6-fluoro-1H-indol-3-yl)-benzenesulfonamide] the same measures were 890 nM and 95 nM.

In the case of `NCCNS(=O)(=O)c1cccc(-c2c[nH]c3cc(F)ccc23)c1` [Example 9, N-(2-aminoethyl)-3-(6-fluoro-1H-indol-3-yl)benzenesulfonamide], the 50% inhibitory concentration (IC50) in test [1] amounted to 1800 nM; in test [2], 240 nM. For `NS(=O)(=O)c1cccc(-c2c[nH]c3cc(F)ccc23)c1` [Example 10, 3-(6-fluoro-1H-indol-3-yl)benzenesulfonamide] the same measures were 2400 nM and 83 nM. The compound `NCCCN1CCN(S(=O)(=O)c2ccc(-c3c[nH]c4cc(F)ccc34)cc2)CC1=O` [Example 152, 1-(3-aminopropyl)-4-((4-(6-fluoro-1H-indol-3-yl)phenyl-)sulfonyl)piperazin-2-one] displayed an IC50 in test [2] of 1320 nM. In test [2], `CNCCCN1CCN(S(=O)(=O)c2ccc(-c3c[nH]c4cc(F)ccc34)cc2)CC1=O` [Example 153, 4-((4-(6-fluoro-1H-indol-3-yl)phenyl)sulfonyl)-1-(3-(methylamino)propyl)piperazin-2-one] showed an IC50 of 1040 nM. Still for that read-out and setting: for `CN(C)CCCN1CCN(S(=O)(=O)c2ccc(-c3c[nH]c4cc(F)ccc34)cc2)CC1=O` [Example 154, 1-(3-(dimethylamino)propyl)-4-((4-(6-fluoro-1H-indol-3-yl)phenyl)sulfonyl) piperazine-2-one] the value was 360 nM; for `Cc1noc(CNS(=O)(=O)c2ccc(-c3c[nH]c4cc(F)ccc34)cc2)n1` [Example 155, 4-(6-fluoro-1H-indol-3-yl)-N-((3-methyl-1,2,4-oxadiazol-5-yl)methyl) benzenesulfonamide], 186 nM. On the same count and under the same terms, for `O=S(=O)(NCc1ncon1)c1ccc(-c2c[nH]c3cc(F)ccc23)cc1` [Example 156, N-((1,2,4-oxadiazol-3-yl)methyl)-4-(6-fluoro-1H-indol-3-yl)benzenesulfonamide] the value was 150 nM; for `O=S(=O)(NCCO)c1ccc(-c2c[nH]c3cc(F)ccc23)cc1` [Example 157, 4-(6-fluoro-1H-indol-3-yl)-N-(2-hydroxyethyl)-benzenesulfonamide], 66 nM. On the same count and under the same terms, under `O=S(=O)(NCCO)c1ccc(-c2c[nH]c3cc(F)ccc23)c(Cl)c1` [Example 158, 3-chloro-4-(6-fluoro-1H-indol-3-yl)-N-(2-hydroxyethyl) benzenesulfonamide] stands 283 nM; under `Cc1nc(CCNS(=O)(=O)c2ccc(-c3c[nH]c4cc(F)ccc34)cc2)c[nH]1` [Example 161, 4-(6-fluoro-1H-indol-3-yl)-N-(2-(2-methyl-1H-imidazol-4-yl)ethyl)benzenesulfonamide], 220 nM. For `CCc1cc(-c2c[nH]c3cc(F)ccc23)ccc1S(=O)(=O)NCCC(N)=O` [Example 162, 3-(2-ethyl-4-(6-fluoro-1H-indol-3-yl)phenylsulfonamido)-propanamide], the midpoint of inhibition in test [2], the IC50, lay at 405 nM. For the compound `CC(C)c1cc(-c2c[nH]c3cc(F)ccc23)ccc1S(=O)(=O)NCCC(N)=O` [Example 163, 3-((4-(6-fluoro-1H-indol-3-yl)-2-isopropylphenyl)-sulfonamido) propanamide], the 50% inhibitory concentration (IC50) in test [2] came to 2220 nM.

The compound `CC(C)Cc1cc(-c2c[nH]c3cc(F)ccc23)ccc1S(=O)(=O)NCCC(N)=O` [Example 164, 3-((4-(6-fluoro-1H-indol-3-yl)-2-isobutylphenyl)-sulfonamido)propanamide] showed an IC50 in test [2] of 5930 nM.

Take `COCc1cc(-c2c[nH]c3cc(F)ccc23)ccc1S(=O)(=O)NCCC(N)=O` [Example 165, 3-((4-(6-fluoro-1H-indol-3-yl)-2-(methoxymethyl)phenyl)-sulfonamido) propanamide]: the concentration for half-maximal inhibition (IC50) in test [2] was found to be 341 nM. On the same count and under the same terms, under `CC(C)Oc1cc(-c2c[nH]c3cc(F)ccc23)ccc1S(=O)(=O)NCCC(N)=O` [Example 166, 3-((4-(6-fluoro-1H-indol-3-yl)-2-isopropoxyphenyl)-sulfonamido)propanamide] stands 4060 nM; under `NC(=O)CCNS(=O)(=O)c1ccc(-c2c[nH]c3cc(F)ccc23)cc1CO` [Example 167, 3-((4-(6-fluoro-1H-indol-3-yl)-2-(hydroxymethyl)-phenyl)sulfonamido)propanamide], 41 nM; under `NC(=O)CCNS(=O)(=O)c1ccc(-c2c[nH]c3cc(F)ccc23)cc1C(F)(F)F` [Example 168, 3-((4-(6-fluoro-1H-indol-3-yl)-2-(trifluoromethyl)phenyl)-sulfonamido)propanamide], 270 nM.

For `O=C(CCNS(=O)(=O)c1ccc(-c2c[nH]c3cc(F)ccc23)cc1)N1C[C@@H](O)[C@@H](O)C1` [Example 169, N-(3-((cis)-3,4-dihydroxypyrrolidin-1-yl)-3-oxopropyl)-4-(6-fluoro-1H-indol-3-yl)benzenesulfonamide], the 50% inhibitory concentration (IC50) in test [2] is 511 nM. On the same count and under the same terms, for `O=C(CCNS(=O)(=O)c1ccc(-c2c[nH]c3cc(F)ccc23)cc1)N1C[C@@H](O)[C@H](O)C1` [Example 170, (+)-N-(3-((3R,4R)-3,4-dihydroxypyrrolidin-1-yl)-3-oxopropyl)-4-(6-fluoro-1H-indol-3-yl) benzenesulfonamide] the value was 1210 nM; for `O=C(CCNS(=O)(=O)c1ccc(-c2c[nH]c3cc(F)ccc23)cc1)N1C[C@H](O)[C@@H](O)C1` [Example 171, (−)-N-(3-((3S,4S)-3,4-dihydroxypyrrolidin-1-yl)-3-oxopropyl)-4-(6-fluoro-1H-indol-3-yl)benzenesulfonamide], 1740 nM; for `N[C@@H]1CN(C(=O)CCNS(=O)(=O)c2ccc(-c3c[nH]c4cc(F)ccc34)cc2)C[C@H]1F` [Example 174, (+)-N-(3-((3R,4R)-3-amino-4-fluoropyrrolidin-1-yl)-3-oxopropyl)-4-(6-fluoro-1H-indol-3-yl)benzenesulfonamide], 383 nM. Turning to `NC(=O)CCNS(=O)(=O)c1ccc(-c2c[nH]c3cc(F)ccc23)cc1CC(F)F` [Example 175, 3-((2-(2,2-difluoroethyl)-4-(6-fluoro-1H-indol-3-yl)-phenyl)sulfonamido)propanamide], the IC50 in test [2] came out at 449 nM.

For the compound `NS(=O)(=O)c1ccc(-c2c[nH]c3cc(F)ccc23)cc1CO` [Example 176, 4-(6-fluoro-1H-indol-3-yl)-2-(hydroxymethyl)benzenesulfonamide], in test [2], the IC50 amounted to 55 nM. Same read-out and setting: for `NCc1cc(-c2c[nH]c3cc(F)ccc23)ccc1S(N)(=O)=O` [Example 177, 2-(aminomethyl)-4-(6-fluoro-1H-indol-3-yl)benzenesulfonamide] the value was 700 nM; for `CS(=O)(=O)c1ccc(-c2c[nH]c3cc(F)ccc23)cc1CN` [Example 178, (5-(6-fluoro-1H-indol-3-yl)-2-(methylsulfonyl)phenyl)methanamine], 411 nM; for `CS(=O)(=O)c1ccc(-c2c[nH]c3cc(F)ccc23)cc1CCO` [Example 179, 2-(5-(6-fluoro-1H-indol-3-yl)-2-(methylsulfonyl)phenyl)ethanol], 79 nM.

Values taken from US10544095B2 (Pfizer Inc., priority 2015, dated 2020).
